Experimental findings from patent US20120108492A1, “LIGAND-SPECIFIC NON-ANTIBODY COMPOUNDS THAT INHIBIT CR2 ACTIVATION AND METHODS OF USE THEREOF” (The Regents of the University of Colorado, priority 2008, published 2012) are described below.

For orientation: IC50 means the midpoint of a concentration-inhibition curve. Low values mean greater potency in that assay, high ones weaker potency in that assay.

Where a SMILES comes first, the peptide text is derived from it. Bridges are numbered along the chain shown (N, C = ends). Where no end group is shown, it is not given here.

One experiment deals with T1, CR2-C3d interaction (Homo sapiens, UniProt P20023).
T1 construct: DNA corresponding to residues 1-133 of wild-type CR2 (SCR1-2) was PCR amplified; made in house; host or cells: E. coli (pMAL-P2X)
T1 sequence (P20023 21-153): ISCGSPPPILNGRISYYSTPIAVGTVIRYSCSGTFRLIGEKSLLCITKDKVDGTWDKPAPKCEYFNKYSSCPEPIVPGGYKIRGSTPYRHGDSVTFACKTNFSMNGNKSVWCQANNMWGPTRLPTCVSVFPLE
Briefly: Peptide competition ELISA, CR2-C3d (bound C3d, solution phase MBP-CR2).
Conditions: not given
In kind it is binding. On the technique in general: In an ELISA, binding on a coated surface is turned into a signal by an enzyme label.
In the case of APAHLSSQ [control], the half-inhibitory concentration (IC50) turned out to be 700 µM.
The compound APQALSSQYSRT [C3dp1.1] registered a concentration for half-maximal inhibition (IC50) of 70 µM.
With APQHLSSQ [C3dp1.3], the IC50 was 40 µM.
For the compound APQHLSSQYSRT [C3dp1], the IC50 stood at 100 µM.
Regarding DPKNHVH [C3dcp1.1, DPKNHVH], the 50% inhibitory concentration (IC50) is 95 µM.
For the compound IATANPRHHSTA [C3dp2.3], the concentration for half-maximal inhibition (IC50) worked out at 160 µM.
Turning to ISTSNPRAASTA [C3dp2.1], the IC50 amounted to 150 µM.
ISTSNPRH [C3dp2.2]: the IC50 is 190 µM.
ISTSNPRHHSTA [C3dp2]: the half-inhibitory concentration (IC50) came out at 450 µM.
Regarding TRSYQSSLHQPA [C3dp1.2], the IC50 came to 70 µM.

The experiment is the same for the next values; noted with them: peptide raised against CR2-EBV gp350.
On to `CC(C)C[C@@H]1NC(=O)[C@H](CO)NC(=O)CNC(=O)[C@H](CCC(=O)O)NC(=O)[C@H](CO)NC(=O)[C@@H](N)CSSC[C@@H](C(=O)O)NC(=O)CNC(=O)[C@H](CCCCN)NC1=O` [gp350cp1] (H-CSEGSLKGC-OH; disulfide 1-9; N-terminus and C-terminus assumed), for which the “effect on the CR2-C3d interaction (ligand specificity)” value is listed as “unaffected”.

The target of the next experiment is T2, CR2-EBV gp350 interaction (Homo sapiens, UniProt P20023).
Assay: not given
To be noted: peptides raised against CR2-C3d.
Regarding APQHLSSQYSRT [C3dp1], the “effect on the CR2-EBV gp350 interaction (ligand specificity)” value is reported as “largely unaffected”.

A further experiment deals with T2, CR2-EBV gp350 interaction. Briefly: biochemical.
Conditions: not given
`CC(C)C[C@@H]1NC(=O)[C@H](CO)NC(=O)CNC(=O)[C@H](CCC(=O)O)NC(=O)[C@H](CO)NC(=O)[C@@H](N)CSSC[C@@H](C(=O)O)NC(=O)CNC(=O)[C@H](CCCCN)NC1=O` [gp350cp1] (H-CSEGSLKGC-OH; disulfide 1-9; N-terminus and C-terminus assumed) came in with a half-maximal inhibitory concentration (IC50) of 150 µM.
